Reference: patent US4794169A, “Pentapeptides with cell growth regulatory effects and a process for the preparation thereof” (Bio-Tech A/S, priority 1985, dated 1988)
Square brackets hold non-standard residues; d marks the D form. Peptide text beside a SMILES is read from it. pGlu = O=C1CC[C@@H](C(=O)O)N1

Test system: mouse epidermal mitotic rate
Assay: Change in mouse epidermal mitotic rate after intraperitoneal injection (Colcemid method)
Format: in vivo
Details: mouse epidermis, first three hours after i.p. injection, vs control animals from same cage
Protocol: In the following Table 1 in vivo results (change in mouse epidermal mitotic rate) have been described as example for four different new pentapeptides. The epidermal mitotic rate was measured for the first three hours after intraperitoneal injection of the new pentapeptides. Mitotic rate was determined by means of "Colcemid" (Demecolcine). A reduced rate was determined as a percentage in comparison with control animals from the same cage.

O=C(O)CC[C@H](NC(=O)[C@@H]1CCC(=O)N1)C(=O)N[C@@H](CC(=O)O)C(=O)N[C@@H](CO)C(=O)NCC(=O)O [Compound 1, pGlu--Glu--Asp--Ser--Gly] ([pGlu]EDSG-OH)
Decrease in mitotic rate % (10^-11 -10^-14 moles of peptide injected per mouse): 40-44%

NC(=O)CC[C@H](NC(=O)[C@@H]1CCC(=O)N1)C(=O)N[C@@H](CC(=O)O)C(=O)N[C@@H](CO)C(=O)NCC(=O)O [Compound 2, pGlu--Gln--Asp--Ser--Gly] ([pGlu]QDSG-OH)
Decrease in mitotic rate % (10^-11 moles of peptide injected per mouse): 39%

C[C@H](NC(=O)[C@H](CC(=O)O)NC(=O)[C@H](CCC(=O)O)NC(=O)[C@@H]1CCC(=O)N1)C(=O)NCC(=O)O [Compound 3, pGlu--Glu--Asp--Ala--Gly] ([pGlu]EDAG-OH)
Decrease in mitotic rate % (10^-13 moles of peptide injected per mouse): 36%
